Test results published in patent US20240132431A1, “METHOD FOR ALKYLATING ACIDIC FUNCTIONAL GROUP” (Chugai Seiyaku Kabushiki Kaisha, priority 2021, published 2024).

Molecular target: T1, Bcl-2 protein (Recombinant Human Bcl-2 Protein) (Homo sapiens, UniProt P10415)
T1 construct: purchased Novus NBP2-34889
Test: Binding evaluation of mixture library compounds to Bcl-2 using AS-MS (affinity selection mass spectrometry)
Settings: for ASMS ratio (%) n = 1 / ASMS ratio (%) n = 2: ASMS Ratio(%)=(A−C)/B×100; for ASMS ratio (%) n = 1: replicate n = 1; for ASMS ratio (%) n = 2: replicate n = 2
Summary of the method: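 Readout is ASMS Ratio (%), (A−C)/B×100, from reversed-phase LC/MS of SEC-passed extracts, with protein-free unfiltered standard (B) and protein-free SEC blank (C). Recombinant human Bcl-2 at 20 μM final met ~1200 pooled compounds at […] each for 1 h, 23° C., dark, in Tris-HCl pH 7.4 buffer.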

[1] = AS-MS, mixture of 1200 compounds, Bcl-2
[2] = AS-MS on the mixture of 1200 library compounds

T1 sequence (P10415 whole entry): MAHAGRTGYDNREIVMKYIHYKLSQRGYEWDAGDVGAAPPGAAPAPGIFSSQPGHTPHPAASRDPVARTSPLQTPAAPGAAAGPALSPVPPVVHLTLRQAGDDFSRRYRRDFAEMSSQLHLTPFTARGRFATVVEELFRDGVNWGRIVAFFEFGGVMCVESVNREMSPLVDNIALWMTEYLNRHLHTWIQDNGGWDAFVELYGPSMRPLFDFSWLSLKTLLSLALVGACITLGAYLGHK

Compound | ASMS ratio (%) (n = 1) | ASMS ratio (%) (n = 2) | ASMS ratio (%) n = 1 (AS-MS, mixture library, Bcl-2) [%] | ASMS ratio (%) n = 2 (AS-MS, mixture library, Bcl-2) [%] | other results
CCOc1cncc(-c2cc(CN3CCN(c4ccc(C(=O)NS(C)(=O)=O)cc4)CC3)cc(OC(C)C)c2)c1 [B2I058-01, 4-[4-[[3-(5-Ethoxypyridin-3-yl)-5-propan-2-yloxyphenyl]methyl]piperazin-1-yl]-N-methylsulfonylbenzamide] | 0.0 | 0.0 | – | – | –
CCOc1cccc(-c2cc(CN3CCN(c4ccc(C(=O)NCC(F)(F)F)cc4)CC3)cc(C(F)(F)F)c2)c1 [B1K061-01, 4-[4-[[3-(3-Ethoxyphenyl)-5-(trifluoromethyl)phenyl]methyl]piperazin-1-yl]-N-(2,2,2-trifluoroethyl)benzamide] | – | – | – | – | ASMS ratio (%) n = 1 [1]: 2.8%; ASMS ratio (%) n = 2 [1]: −1.3%
CCOc1cccc(-c2cc(C(=O)N3CCN(c4ccc(C(=O)NS(=O)(=O)c5ccc(NCCSc6ccccc6)c(C(F)(F)F)c5)cc4)CC3)cc(C(C)(C)C)c2)c1 [B2R037-01, 4-[4-[3-tert-Butyl-5-(3-ethoxyphenyl)benzoyl]piperazin-1-yl]-N-[4-(2-phenylsulfanylethylamino)-3-(trifluoromethyl)phenyl]sulfonylbenzamide] | 6.3 | −7.0 | – | – | –
CCOc1cccc(-c2cc(CN3CCN(c4ccc(C(=O)NS(=O)(=O)CC56CC7CC(CC(C7)C5)C6)nn4)CC3)cc(OCC)c2)c1 [B2A081-01, N-(1-Adamantylmethylsulfonyl)-6-[4-[[3-ethoxy-5-(3-ethoxyphenyl)phenyl]methyl]piperazin-1-yl]pyridazine-3-carboxamide] | – | – | 18.6 | 16.7 | –
CCOc1cccc(-c2cc(C(=O)N3CCN(c4ccc(C(=O)NS(=O)(=O)c5ccc(NCCSc6ccccc6)c([N+](=O)[O-])c5)nn4)CC3)cc(C(F)(F)F)c2)c1 [B2Q017-01, 6-[4-[3-(3-Ethoxyphenyl)-5-(trifluoromethyl)benzoyl]piperazin-1-yl]-N-[3-nitro-4-(2-phenylsulfanylethylamino)phenyl]sulfonylpyridazine-3-carboxamide] | – | – | 12.8 | 0.2 | –
CCOc1cccc(-c2ccc(C(=O)N3CCN(c4ccc(C(=O)NS(=O)(=O)c5ccc(NCCSc6ccccc6)c(C(F)(F)F)c5)cc4)CC3)c3ccccc23)c1 [B2R035-01, 4-[4-[4-(3-Ethoxyphenyl)naphthalene-1-carbonyl]piperazin-1-yl]-N-[4-(2-phenylsulfanylethylamino)-3-(trifluoromethyl)phenyl]sulfonylbenzamide] | 8.3 | 0.9 | – | – | –
CCOc1cncc(-c2ccc(C(=O)N3CCN(c4ccc(C(=O)NS(=O)(=O)c5ccc(NCCSc6ccccc6)c([N+](=O)[O-])c5)cc4)CC3)c3ccccc23)c1 [B2Q036-01, 4-[4-[4-(5-Ethoxypyridin-3-yl)naphthalene-1-carbonyl]piperazin-1-yl]-N-[3-nitro-4-(2-phenylsulfanylethylamino)phenyl]sulfonylbenzamide] | – | – | 0.0 | −6.0 | –
CCOc1cncc(C#Cc2cc(C(=O)N3CCN(c4ccc(C(=O)NS(=O)(=O)c5ccc(NCCSc6ccccc6)c(C(F)(F)F)c5)cc4)CC3)cc(C(F)(F)F)c2)c1 [B2R042-01, 4-[4-[3-[2-(5-Ethoxypyridin-3-yl)ethynyl]-5-(trifluoromethyl)benzoyl]piperazin-1-yl]-N-[4-(2-phenylsulfanylethylamino)-3-(trifluoromethyl)phenyl]sulfonylbenzamide] | 3.4 | 6.0 | – | – | –
4-[4-[[3-Ethoxy-5-(3-ethoxyphenyl)phenyl]methyl]piperazin-1-yl]-N-propylbenzamide [B1M009-01] | – | – | – | – | ASMS ratio (%) n = 2 [1]: 0.0%
CCOc1cccc(-c2ccccc2CCC(=O)N2CCN(c3ccc(C(=O)NS(=O)(=O)CC45CC6CC(CC(C6)C4)C5)cc3)CC2)c1 [B2A033-01, N-(1-Adamantylmethylsulfonyl)-4-[4-[3-[2-(3-ethoxyphenyl)phenyl]propanoyl]piperazin-1-yl]benzamide] | – | – | 1.7 | −4.5 | –
CCOc1cccc(-c2ccc(C(=O)N3CCN(c4ccc(C(=O)NS(C)(=O)=O)nn4)CC3)cc2F)c1 [B2I005-01, 6-[4-[4-(3-Ethoxyphenyl)-3-fluorobenzoyl]piperazin-1-yl]-N-methylsulfonylpyridazine-3-carboxamide] | – | – | 0.0 | 0.0 | –
CCOc1cncc(C#Cc2cncc(C(=O)N3CCN(c4ccc(C(=O)NS(C)(=O)=O)cc4)CC3)c2)c1 [B2I032-01, 4-[4-[5-[2-(5-Ethoxypyridin-3-yl)ethynyl]pyridine-3-carbonyl]piperazin-1-yl]-N-methylsulfonylbenzamide] | – | – | −1.6 | −1.6 | –
CCOc1cncc(-c2ccc(CN3CCN(c4ccc(C(=O)NS(C)(=O)=O)cc4)CC3)c(OC)c2)c1 [B2I054-01, 4-[4-[[4-(5-Ethoxypyridin-3-yl)-2-methoxyphenyl]methyl]piperazin-1-yl]-N-methylsulfonylbenzamide] | 0.0 | 0.0 | – | – | –
CCOc1cncc(-c2csc(CN3CCN(c4ccc(C(=O)NS(=O)(=O)C(C)(C)C)cc4)CC3)c2)c1 [B2L068-01, N-tert-Butylsulfonyl-4-[4-[[4-(5-ethoxypyridin-3-yl)thiophen-2-yl]methyl]piperazin-1-yl]benzamide] | 0.0 | 0.0 | – | – | –
CCOc1cncc(-c2cc(CN3CCN(c4ccc(C(=O)NS(=O)(=O)c5ccc(NCCSc6ccccc6)c([N+](=O)[O-])c5)nn4)CC3)cc(OC(F)(F)F)c2)c1 [B2Q090-01, 6-[4-[[3-(5-Ethoxypyridin-3-yl)-5-(trifluoromethoxy)phenyl]methyl]piperazin-1-yl]-N-[3-nitro-4-(2-phenylsulfanylethylamino)phenyl]sulfonylpyridazine-3-carboxamide] | – | – | 21.8 | 13.2 | –
CCOc1cncc(-c2ccc(CN3CCN(c4ccc(C(=O)NS(=O)(=O)CC56CC7CC(CC(C7)C5)C6)nn4)CC3)c(CC)c2)c1 [B2A076-01, N-(1-Adamantylmethylsulfonyl)-6-[4-[[4-(5-ethoxypyridin-3-yl)-2-ethylphenyl]methyl]piperazin-1-yl]pyridazine-3-carboxamide] | – | – | 23.4 | 11.4 | –
CCOc1cccc(-c2ccccc2CN2CCN(c3ccc(C(=O)NS(=O)(=O)CC45CC6CC(CC(C6)C4)C5)nn3)CC2)c1 [B2A071-01, N-(1-Adamantylmethylsulfonyl)-6-[4-[[2-(3-ethoxyphenyl)phenyl]methyl]piperazin-1-yl]pyridazine-3-carboxamide] | – | – | 16.1 | 5.6 | –
CCOc1cccc(-c2cc(CN3CCN(c4ccc(C(=O)Nc5ccc(OC)cc5)cc4)CC3)cc(C(F)(F)F)c2)c1 [B1O061-01, 4-[4-[[3-(3-Ethoxyphenyl)-5-(trifluoromethyl)phenyl]methyl]piperazin-1-yl]-N-(4-methoxyphenyl)benzamide] | – | – | – | – | ASMS ratio (%) n = 1 [2]: 1.9%; ASMS ratio (%) n = 2 [2]: −1.5%
CCOc1cncc(-c2cc(OC)c(CN3CCN(c4ccc(C(=O)NS(=O)(=O)CC56CC7CC(CC(C7)C5)C6)nn4)CC3)c(OC)c2)c1 [B2A086-01, N-(1-Adamantylmethylsulfonyl)-6-[4-[[4-(5-ethoxypyridin-3-yl)-2,6-dimethoxyphenyl]methyl]piperazin-1-yl]pyridazine-3-carboxamide] | – | – | 0.0 | 0.0 | –
CCOc1cccc(-c2cc(CN3CCN(c4ccc(C(=O)NS(C)(=O)=O)nn4)CC3)cc(OC(F)(F)F)c2)c1 [B2I089-01, 6-[4-[[3-(3-Ethoxyphenyl)-5-(trifluoromethoxy)phenyl]methyl]piperazin-1-yl]-N-methylsulfonylpyridazine-3-carboxamide] | 1.4 | 0.0 | – | – | –
6-[4-[[3-Ethoxy-5-(3-ethoxyphenyl)phenyl]methyl]piperazin-1-yl]-N-propylpyridazine-3-carboxamide [B1M010-01] | – | – | – | – | ASMS ratio (%) n = 1 [1]: 0.0%; ASMS ratio (%) n = 2 [1]: 0.0%
CCOc1cccc(-c2csc(CN3CCN(c4ccc(C(=O)NS(=O)(=O)CCC(F)(F)F)cc4)CC3)c2)c1 [B2N067-01, 4-[4-[[4-(3-Ethoxyphenyl)thiophen-2-yl]methyl]piperazin-1-yl]-N-(3,3,3-trifluoropropylsulfonyl)benzamide] | 0.0 | 0.0 | – | – | –
CCOc1cccc(-c2cc(C(=O)N3CCN(c4ccc(C(=O)N(C)CC56CC7CC(CC(C7)C5)C6)nn4)CC3)cc(C(C)(C)C)c2)c1 [B3A015-01, N-(1-Adamantylmethyl)-6-[4-[3-tert-butyl-5-(3-ethoxyphenyl)benzoyl]piperazin-1-yl]-N-methylpyridazine-3-carboxamide] | – | – | – | – | ASMS ratio (%) n = 1 [2]: 8.9%; ASMS ratio (%) n = 2 [2]: 3.0%
CCOc1cncc(-c2ccc(CN3CCN(c4ccc(C(=O)NS(=O)(=O)c5ccc(NCCSc6ccccc6)c(C(F)(F)F)c5)cc4)CC3)cc2C)c1 [B2R048-01] | 9.2 | 7.5 | – | – | –
CCOc1cncc(-c2cnn(-c3cc(C(=O)N4CCN(c5ccc(C(=O)NS(=O)(=O)CCC(F)(F)F)cc5)CC4)cc(C(F)(F)F)c3)c2)c1 [B2N044-01, 4-[4-[3-[4-(5-Ethoxypyridin-3-yl)pyrazol-1-yl]-5-(trifluoromethyl)benzoyl]piperazin-1-yl]-N-(3,3,3-trifluoropropylsulfonyl)benzamide] | 0.2 | 1.4 | – | – | –
